# In patent US11820773B2, “Tricyclic compounds” (ALIGOS THERAPEUTICS, INC., priority 2020, dated 2023):
# Tested on: HBV
# Assay: HBV-DNA antiviral assay using HepG2.117 cells (intracellular HBV DNA by qPCR)
# Type: cell-based, genotype D HBV
# Conditions: HBV DNA inhibition, 3 days incubation, 2% DMSO
# In short: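 Endpoints are intracellular HBV DNA by qPCR (interpolated from a gBlock standard curve) and ATP-based viability in duplicate plates. Doxycycline-free HepG2.117 Tet-off cells received compounds (9 concentrations, 4-fold steps, 2% DMSO) for 3 days. Inhibition normalised to DMSO wells; EC50/EC90/CC50 by curve fitting.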
row,SMILES,EC50
1,"Cn1nnc(-c2ccc(-n3c(=O)c4c(n5ncc(Cc6ccccc6)c35)CN(C(=O)c3ccc(Br)c(Cl)c3)CC4)cc2)n1 [Compound 10, 5-benzyl-12-(4-bromo-3-chloro-benzoyl)-7-[4-(2-methyltetrazol-5-yl)phenyl]-2,3,7,12-tetrazatricyclo[7.4.0.0^2,6]trideca-1(9),3,5-trien-8-one]",< 50 nM
2,"CC(C)Cc1cnn2c3c(c(=O)n(-c4ccc(-c5nncn5C)cc4)c12)C[C@H](C)N(C(=O)c1ccc(Br)c(Cl)c1)C3 [Compound 60b, (11S)-12-(4-bromo-3-chlorobenzoyl)-11-methyl-7-[4-(4-methyl-1,2,4-triazol-3-yl)phenyl]-5-(2-methylpropyl)-2,3,7,12-tetraazatricyclo[7.4.0.0^{2,6}]trideca-1(9),3,5-trien-8-one]",50 to 500 nM

# Same assay, conditions: Hepatitis B virus, 72 h, HBV DNA inhibition, 3 days incubation, 2% DMSO
row,SMILES,EC50
1,"CC(C)Cc1cnn2c3c(c(=O)n(-c4ccc(-c5nncn5C)cc4)c12)C[C@@H](C)N(C(=O)c1ccc(Br)c(Cl)c1)C3 (stereo in doubt) [Compound 68a, rac-(11R)-12-(4-bromo-3-chloro-benzoyl)-5-isobutyl-11-methyl-7-[4-(4-methyl-1,2,4-triazol-3-yl)phenyl]-2,3,7,12-tetrazatricyclo[7.4.0.0^2,6]trideca-1(9),3,5-trien-8-one]",< 50 nM
2,"Cc1nn[nH]c1-c1ccc(-n2c(=O)c3c(n4ncc(CC(C)C)c24)CN(C(=O)c2ccc(Cl)c(C(F)(F)F)c2)[C@@H](C)C3)cc1 (stereo in doubt) [Compound 63b, rac-(11S)-12-[4-chloro-3-(trifluoromethyl)benzoyl]-5-isobutyl-11-methyl-7-[4-(4-methyl-1H-triazol-5-yl)phenyl]-2,3,7,12-tetrazatricyclo[7.4.0.0^2,6]trideca-1(9),3,5-trien-8-one]",500 to 5000 nM
3,"CNc1n[nH]c2cc(-n3c(=O)c4c(n5ncc(Cc6ccccc6)c35)CN(C(=O)c3ccc(Br)c(C(F)(F)F)c3)[C@@H](C)C4)ccc12 (stereo in doubt) [Compound 43b, rac-(11S)-5-benzyl-12-[4-bromo-3-(trifluoromethyl)benzoyl]-11-methyl-7-[3-(methylamino)-1H-indazol-6-yl]-2,3,7,12-tetrazatricyclo[7.4.0.0^2,6]trideca-1(9),3,5-trien-8-one]",< 50 nM
4,"Cc1cnn(-c2ccc(-n3c(=O)c4c(n5ncc(Cc6ccccc6)c35)CN(C(=O)c3ccc(Br)c(C(F)(F)F)c3)[C@@H](C)C4)cc2)n1 (stereo in doubt) [Compound 79b, rac-(11S)-5-benzyl-12-[4-bromo-3-(trifluoromethyl)benzoyl]-11-methyl-7-[4-(4-methyltriazol-2-yl)phenyl]-2,3,7,12-tetrazatricyclo[7.4.0.0^2,6]trideca-1(9),3,5-trien-8-one]",50 to 500 nM
5,"COP(=O)(O)OCN(C)C(=O)c1ccc(-n2c(=O)c3c(n4ncc(CC5CC5)c24)CN(C(=O)c2ccc(Br)c(C(F)(F)F)c2)[C@@H](C)C3)cc1 (racemic) [Compound 107, Methyl [methyl-[4-[rac-(11S)-12-[4-bromo-3-(trifluoromethyl)benzoyl]-5-(cyclopropylmethyl)-11-methyl-8-oxo-2,3,7,12-tetrazatricyclo[7.4.0.0^2,6]trideca-1(9),3,5-trien-7-yl]benzoyl]amino]methyl Hydrogen Phosphate]",> 5000 nM
6,"C[C@H]1Cc2c(n3ncc(Cc4ccccc4)c3n(-c3ccc(-n4ccc(C(F)(F)F)n4)cc3)c2=O)CN1C(=O)c1ccc(Br)c(C(F)(F)F)c1 (stereo in doubt) [Compound 70b, rac-(11S)-5-benzyl-12-[4-bromo-3-(trifluoromethyl)benzoyl]-11-methyl-7-[4-[3-(trifluoromethyl)pyrazol-1-yl]phenyl]-2,3,7,12-tetrazatricyclo[7.4.0.0^2,6]trideca-1(9),3,5-trien-8-one]",500 to 5000 nM
7,"CC(C)Cc1cnn2c3c(c(=O)n(-c4ccc(-c5cnnn5C)cc4)c12)C[C@@H](C)N(C(=O)c1ccc(Br)c(C(F)(F)F)c1)C3 (stereo in doubt) [Compound 102a, rac-(11R)-12-[4-bromo-3-(trifluoromethyl)benzoyl]-5-isobutyl-11-methyl-7-[4-(3-methyltriazol-4-yl)phenyl]-2,3,7,12-tetrazatricyclo[7.4.0.0^2,6]trideca-1(9),3,5-trien-8-one]",< 50 nM
8,"Cc1cnn(-c2ccc(-n3c(=O)c4c(n5ncc(CC(C)C)c35)CN(C(=O)c3ccc(Br)c(C(F)(F)F)c3)[C@H](C)C4)cc2)c1 (stereo in doubt) [Compound 98a, rac-(11R)-12-[4-bromo-3-(trifluoromethyl)benzoyl]-5-isobutyl-11-methyl-7-[4-(4-methylpyrazol-1-yl)phenyl]-2,3,7,12-tetrazatricyclo[7.4.0.0^2,6]trideca-1(9),3,5-trien-8-one]",< 50 nM
9,"CNC(=O)c1ccc(-n2c(=O)c3c(n4ncc(CC5CCC5)c24)CN(C(=O)c2ccc(Br)c(C(F)(F)F)c2)[C@@H](C)C3)cc1 (stereo in doubt) [Compound 37b, N-methyl-4-[rac-(11S)-12-[4-bromo-3-(trifluoromethyl)benzoyl]-5-(cyclobutylmethyl)-11-methyl-8-oxo-2,3,7,12-tetrazatricyclo[7.4.0.0^2,6]trideca-1(9),3,5-trien-7-yl]benzamide]",50 to 500 nM
10,"C[C@H]1Cc2c(n3ncc(CC4CCC4)c3n(-c3ccc(-c4nncn4C)cc3)c2=O)CN1C(=O)c1ccc(Cl)c(C(F)(F)F)c1 (stereo in doubt) [Compound 51b, rac-(11S)-12-[4-chloro-3-(trifluoromethyl)benzoyl]-5-(cyclobutylmethyl)-11-methyl-7-[4-(4-methyl-1,2,4-triazol-3-yl)phenyl]-2,3,7,12-tetrazatricyclo[7.4.0.0^2,6]trideca-1(9),3,5-trien-8-one]",500 to 5000 nM
11,"C[C@H]1Cc2c(n3ncc(Cc4ccccc4)c3n(-c3ccc(-c4nncn4C)cc3)c2=O)CN1C(=O)c1ccc(Br)c(C(F)(F)F)c1 (stereo in doubt) [Compound 39b, rac-(11S)-5-benzyl-12-[4-bromo-3-(trifluoromethyl)benzoyl]-11-methyl-7-[4-(4-methyl-1,2,4-triazol-3-yl)phenyl]-2,3,7,12-tetrazatricyclo[7.4.0.0^2,6]trideca-1(9),3,5-trien-8-one]",50 to 500 nM
12,"C[C@H]1Cc2c(n3ncc(Cc4ccccc4)c3n(-c3ccc(-c4nc(=O)on4C)cc3)c2=O)CN1C(=O)c1ccc(Br)c(C(F)(F)F)c1 (stereo in doubt) [Compound 44b, 2-methyl-3-[4-[rac-(11S)-5-benzyl-12-[4-bromo-3-(trifluoromethyl)benzoyl]-11-methyl-8-oxo-2,3,7,12-tetrazatricyclo[7.4.0.0^2,6]trideca-1(9),3,5-trien-7-yl]phenyl]-1,2,4-oxadiazol-5-one]",< 50 nM
13,"CNC(=O)c1ccc(-n2c(=O)c3c(n4ncc(CC(C)C)c24)CN(C(=O)c2ccc(Br)c(C(F)(F)F)c2)[C@@H](C)C3)cc1 (stereo in doubt) [Compound 50b, N-methyl-4-[rac-(11S)-12-[4-bromo-3-(trifluoromethyl)benzoyl]-5-isobutyl-11-methyl-8-oxo-2,3,7,12-tetrazatricyclo[7.4.0.0^2,6]trideca-1(9),3,5-trien-7-yl]benzamide]",50 to 500 nM
14,"COP(=O)(OC)OCN(C)C(=O)c1ccc(-n2c(=O)c3c(n4ncc(CC5CC5)c24)CN(C(=O)c2ccc(Br)c(C(F)(F)F)c2)[C@@H](C)C3)cc1 (racemic) [Compound 103, Dimethyl [methyl-[4-[rac-(11S)-12-[4-bromo-3-(trifluoromethyl)benzoyl]-5-(cyclopropylmethyl)-11-methyl-8-oxo-2,3,7,12-tetrazatricyclo[7.4.0.0^2,6]trideca-1(9),3,5-trien-7-yl]benzoyl]amino]methyl Phosphate]",> 5000 nM
15,"CNC(=O)c1ccc(-n2c(=O)c3c(n4ncc(CC5CC5)c24)CN(C(=O)c2ccc(Br)c(C(F)(F)F)c2)CC3)cc1 [Compound 24, 4-[12-[4-bromo-3-(trifluoromethyl)benzoyl]-5-(cyclopropylmethyl)-8-oxo-2,3,7,12-tetrazatricyclo[7.4.0.0^2,6]trideca-1(9),3,5-trien-7-yl]-N-methyl-benzamide]",< 50 nM
16,"Cc1nn[nH]c1-c1ccc(-n2c(=O)c3c(n4ncc(CC(C)C)c24)CN(C(=O)c2ccc(Cl)c(C(F)(F)F)c2)[C@H](C)C3)cc1 (stereo in doubt) [Compound 63a, rac-(11R)-12-[4-chloro-3-(trifluoromethyl)benzoyl]-5-isobutyl-11-methyl-7-[4-(4-methyl-1H-triazol-5-yl)phenyl]-2,3,7,12-tetrazatricyclo[7.4.0.0^2,6]trideca-1(9),3,5-trien-8-one]",< 50 nM
17,"CNc1n[nH]c2cc(-n3c(=O)c4c(n5ncc(Cc6ccccc6)c35)CN(C(=O)c3ccc(Br)c(C(F)(F)F)c3)CC4)ccc12 [Compound 26, 5-benzyl-12-[4-bromo-3-(trifluoromethyl)benzoyl]-7-[3-(methylamino)-1H-indazol-6-yl]-2,3,7,12-tetrazatricyclo[7.4.0.0^2,6]trideca-1(9),3,5-trien-8-one]",< 50 nM
18,"CNC(=O)c1ccc(-n2c(=O)c3c(n4ncc(Cc5ccccc5)c24)CN(C(=O)c2ccc(Br)c(C(F)(F)F)c2)[C@H](C)C3)nc1 (stereo in doubt) [Compound 109a, N-methyl-6-[rac-(11R)-5-benzyl-12-[4-bromo-3-(trifluoromethyl)benzoyl]-11-methyl-8-oxo-2,3,7,12-tetrazatricyclo[7.4.0.0^2,6]trideca-1(9),3,5-trien-7-yl]pyridine-3-carboxamide]",50 to 500 nM
19,"C[C@H]1Cc2c(n3ncc(Cc4ccccc4)c3n(-c3ccc(-c4n[nH]c(=O)n4C)cc3)c2=O)CN1C(=O)c1ccc(Br)c(C(F)(F)F)c1 (stereo in doubt) [Compound 58b, rac-(11S)-5-benzyl-12-[4-bromo-3-(trifluoromethyl)benzoyl]-11-methyl-7-[4-(4-methyl-5-oxo-1H-1,2,4-triazol-3-yl)phenyl]-2,3,7,12-tetrazatricyclo[7.4.0.0^2,6]trideca-1(9),3,5-trien-8-one]",< 50 nM
